Data reported in patent US8987273B2, “Substituted imidazo[1,2-B]pyridazines” (Bayer Intellectual Property GmbH, priority 2010, dated 2015).

Key:
[1] = biological target: His-tagged human recombinant kinase full-length Akt1 (Homo sapiens (Human), UniProt P31749); assay: Akt1 kinase assay (TR-FRET); type: biochemical; details: 10 μM ATP; median
From the text: Akt1 inhibitory activity of compounds of the present invention was quantified employing the Akt1 TR-FRET assay as described in the following paragraphs. His-tagged human recombinant kinase full-length Akt1 expressed in insect cells was purchased form Invitrogen (part number PV 3599). As substrate for the kinase reaction the biotinylated peptide biotin-Ahx-[…] (C-terminus in amide form) was used which can be purchased e.g. from the company Biosynthan GmbH (Berlin-Buch, Germany).
(§1) For the assay 50 nl of a 100 fold concentrated solution of the test compound in DMSO was pipetted into a black low volume 384 well microtiter plate (Greiner Bio-One, Frickenhausen, Germany), 2 μl of a solution of Akt1 in assay buffer [50 mM TRIS/HCl pH 7.5, 5 mM MgCl2, 1 mM dithiothreitol, 0.02% (v/v) Triton X-100 (Sigma)] were added and the mixture was incubated for 15 min at 22° C. to allow pre-binding of the test compounds to the enzyme before the start of the kinase reaction. Then the kinase reaction was started by the addition of 3 μl of a solution of adenosine-tri-phosphate (ATP, 16.7 μM=>final conc. in the 5 μl assay volume is 10 μM) and substrate (1.67 μM=>final conc. in the 5 μl assay volume is 1 μM) in assay buffer and the resulting mixture was incubated for a reaction time of 60 min at 22° C. The concentration of Akt1 in the assay was adjusted depending of the activity of the enzyme lot and was chosen appropriate to have the assay in the linear range, typical enzyme concentrations were in the range of about 0.05 ng/μl (final conc. in the 5 μl assay volume).
(§2) The reaction was stopped by the addition of 5 μl of a solution of HTRF detection reagents (200 nM streptavidine-XL665 [Cisbio] and 1.5 nM anti-phosho-Serine antibody [Millipore, cat. #35-001] and 0.75 nM LANCE Eu-W 1024 labeled anti-mouse IgG antibody [Perkin Elmer]) in an aqueous EDTA-solution (100 mM EDTA, 0.1% (w/v) bovine serum albumin in 50 mM HEPES/NaOH pH 7.5).
(§3) The resulting mixture was incubated 1 h at 22° C. to allow the binding of the biotinylated phosphorylated peptide to the streptavidine-XL665 and the antibodies. Subsequently the amount of phosphorylated substrate was evaluated by measurement of the resonance energy transfer from the anti-mouse-IgG-Eu-Chelate to the streptavidine-XL665. Therefore, the fluorescence emissions at 620 nm and 665 nm after excitation at 350 nm was measured in a HTRF reader, e.g. a Rubystar (BMG Labtechnologies, Offenburg, Germany) or a Viewlux (Perkin-Elmer). The ratio of the emissions at 665 nm and at […] was taken as the measure for the amount of phosphorylated substrate. The data were normalised (enzyme reaction without inhibitor=0% inhibition, all other assay components but no enzyme=100% inhibition).

[2] = tested on: KPL-4 cells; assay: Tumor cell proliferation assay (CellTiter-Glo); type: cell-based; details: KPL4; 72 h drug exposure
Protocol: Compounds were tested in a cell-based assay that measures the capacity of the compounds to inhibit tumour cell proliferation following a 72 h drug exposure. Cell viability is determined using CellTiter-Glow® (CTG, Promega, cat# G757112/3). The CellTiter-Glo® Luminescent Cell Viability Assay is a homogeneous method to determine the number of viable cells in culture. Detection is based on using the luciferase reaction to measure the amount of ATP from viable cells. The amount of ATP in cells correlates with cell viability. Within minutes after a loss of membrane integrity, cells lose the ability to synthesize ATP, and endogenous ATPases destroy any remaining ATP; thus the levels of ATP fall precipitously.
Cells were plated at 3000-5000 cells/well (depending on the cell lines) in 90 μL growth medium on MTPs (Corning; #3603, black plate, clear flat bottom). For each cell line assayed, cells were plated onto a separate plate for determination of […] at t=0 hour and t=72 hour time points. Following overnight incubation at 37° C., chemiluminescence values for the t=0 samples were determined after adding 10 μl medium and 100 μl CTG solution according to manufacture protocol. Plates for the t=72 hour time points were treated with compounds diluted into growth medium at ten times final concentration added in 10 μL to the cell culture plate. Cells were then incubated for 72 hours at 37° C. Chemiluminescence values for the t=72 hour samples were determined. For data analysis, briefly, data from 24 h plate where used to reflect 100% inhibition of growth (“Ci”) and DMSO control for uninhibited growth (“C0”) and analyzed using MTS software package for IC50 and Hill coefficient. Experiments were controlled using a reference compound as standard.

[3] = tested on: phospho-AKT at S473 in KPL4 breast tumour cell line; assay: Cellular p-AKT1/2/3-S473 assay; type: cell-based; details: KPL4 cells, 2 hours treatment; median; read-out: pAKT-S743 median IC50
Protocol: The molecular mechanism of action was investigated in a set of experiments to assess the inhibition of the PI3K-AKT-mTOR pathway in responsive cell lines such as KPL4 breast tumour cell line (PIK3CAH1047R, HER2O/E and hormone independent). The phospho-substrates of PI3K-AKT-mTOR axis were used as the read-outs to reflect pathway inhibition. Cells were seeded at 60-80% confluency per well in 96-well cell culture plates. After overnight incubation at 37° C. 5% CO2, cells were treated with compounds and vehicle at 37° C. for 2 hours. […] All measurements where at least done in duplicates and confirmed by independent repetition.
Alternatively pAKT-S473 was measured using the “Akt Duplex” of the MULTI-SPOT® Assay System (Fa. Meso Scale Discovery, Cat# N41100B-1) following manufacturers instructions. Each assay used 20 μg of protein extract and measured total AKT and p-AKT content simultaneously in one well. All measurements where at least done in duplicates and confirmed by independent repetition. Values for P-AKT are expressed as percentage of P-AKT level compared to total-AKT content of the extracts.

[4] = biological target: His-tagged human recombinant kinase full-length Akt2 (Homo sapiens (Human), UniProt P31751); assay: Akt2 kinase assay (TR-FRET); type: biochemical; details: 10 μM ATP; median
His-tagged human recombinant kinase full-length Akt2, sequence (P31751 whole entry): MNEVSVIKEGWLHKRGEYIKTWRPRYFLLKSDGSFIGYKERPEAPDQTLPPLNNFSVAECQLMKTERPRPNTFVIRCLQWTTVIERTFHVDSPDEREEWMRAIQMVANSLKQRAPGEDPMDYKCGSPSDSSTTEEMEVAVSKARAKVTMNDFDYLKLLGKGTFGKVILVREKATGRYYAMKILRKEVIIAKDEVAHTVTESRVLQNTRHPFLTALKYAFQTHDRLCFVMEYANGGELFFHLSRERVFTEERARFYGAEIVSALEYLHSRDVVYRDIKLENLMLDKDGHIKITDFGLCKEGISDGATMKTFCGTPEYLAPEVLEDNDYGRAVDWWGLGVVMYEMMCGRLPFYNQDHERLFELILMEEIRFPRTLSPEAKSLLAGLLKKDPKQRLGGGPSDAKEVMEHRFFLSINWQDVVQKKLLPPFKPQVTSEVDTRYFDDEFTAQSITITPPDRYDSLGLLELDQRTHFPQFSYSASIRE
From the text: Akt2 inhibitory activity of compounds of the present invention was quantified employing the Akt2 TR-FRET assay as described in the following paragraphs.
His-tagged human recombinant kinase full-length Akt2 expressed in insect cells and activated by PDK1 was purchased form Invitrogen (part number PV 3975). As substrate for the kinase reaction the biotinylated peptide biotin-Ahx-[…] (C-terminus in amide form) was used which can be purchased e.g. from the company Biosynthan GmbH (Berlin-Buch, Germany).
as §1, with “Akt2” for “Akt1”, “0.2” for “0.05”
as §2, with “0.1%/w/v\” for “0.1% (w/v)”
as §3, with “TR-FRET” for “HTRF”

His-tagged human recombinant kinase full-length Akt1, sequence (P31749 whole entry): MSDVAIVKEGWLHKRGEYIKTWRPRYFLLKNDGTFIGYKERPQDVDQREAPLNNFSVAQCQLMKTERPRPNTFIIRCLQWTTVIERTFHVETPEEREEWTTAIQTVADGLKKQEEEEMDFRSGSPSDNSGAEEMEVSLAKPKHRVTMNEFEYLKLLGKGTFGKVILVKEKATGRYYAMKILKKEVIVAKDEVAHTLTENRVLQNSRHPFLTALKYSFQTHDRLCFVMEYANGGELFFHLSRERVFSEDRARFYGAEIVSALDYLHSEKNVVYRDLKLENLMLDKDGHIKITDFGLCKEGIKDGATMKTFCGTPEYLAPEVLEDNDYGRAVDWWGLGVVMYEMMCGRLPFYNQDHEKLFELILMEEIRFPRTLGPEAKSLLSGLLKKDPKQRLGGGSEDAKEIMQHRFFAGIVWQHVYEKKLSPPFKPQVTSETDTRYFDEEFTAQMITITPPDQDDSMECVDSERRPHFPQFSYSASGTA

IC50 [1]	IC50 [2]	IC50 [3]	IC50 [4]	SMILES
4430 nM	2280 nM	9170 nM	5110 nM	Cc1nc2cc(-c3ccccc3)c(-c3ccc(C4(N)CCC4)cc3)nn2c1-c1ccc(F)cc1 [Example 5-3, 1-{4-[3-(4-Fluorophenyl)-2-methyl-7-phenyl-imidazo[1,2-b]pyridazin-6-yl]-phenyl}-cyclobutylamine]
11 nM	1400 nM	–	70 nM	NC1(c2ccc(-c3nn4c(-c5ccn[nH]5)cnc4cc3-c3ccccc3)cc2)CCC1 [Example 4-15, 1-{4-[7-Phenyl-3-(2H-pyrazol-3-yl)-imidazo[1,2-b]pyridazin-6-yl]-phenyl}-cyclobutylamine]
5 nM	1810 nM	–	46 nM	COc1cncc(-c2cnc3cc(-c4ccccc4)c(-c4ccc(C5(N)CCC5)cc4)nn23)c1 [Example 4-18, 1-{4-[3-(5-Methoxypyridin-3-yl)-7-phenyl-imidazo[1,2-b]pyridazin-6-yl]-phenyl}-cyclobutylamine]
110 nM	1850 nM	–	278 nM	CS(=O)(=O)c1ccc(-c2cnc3cc(-c4ccccc4)c(-c4ccc(C5(N)CCC5)cc4)nn23)cc1 [Example 4-0, 1-{4-[3-(4-Methanesulfonylphenyl)-7-phenyl-imidazo[1,2-b]pyridazin-6-yl]-phenyl}-cyclobutylamine]
129 nM	2030 nM	–	136 nM	N#Cc1ccc(-c2cnc3cc(-c4ccccc4)c(-c4ccc(C5(N)CCC5)cc4)nn23)cc1 [Example 4-1, 4-{6-[4-(1-Amino-cyclobutyl)-phenyl]-7-phenyl-imidazo[1,2-b]pyridazin-3-yl}-benzonitrile]
44 nM	6000 nM	–	277 nM	Cc1ccc(-c2cnc3cc(-c4ccccc4)c(-c4ccc(C5(N)CCC5)cc4)nn23)cc1 [Example 4-4, 1-[4-(7-Phenyl-3-p-tolyl-imidazo[1,2-b]pyridazin-6-yl)-phenyl]-cyclobutylamine]
4 nM	2560 nM	–	58 nM	COC(=O)c1cccc(-c2cnc3cc(-c4ccccc4)c(-c4ccc(C5(N)CCC5)cc4)nn23)c1 [Example 4-2, 3-{6-[4-(1-Amino-cyclobutyl)-phenyl]-7-phenyl-imidazo[1,2-b]pyridazin-3-yl}-benzoic acid methyl ester]
4780 nM	2750 nM	10000 nM	–	Cc1nc2cc(-c3ccccc3)c(-c3ccc(C4(N)CCC4)cc3)nn2c1-c1cn[nH]c1 [Example 5-2, 1-{4-[2-Methyl-7-phenyl-3-(1H-pyrazol-4-yl)-imidazo[1,2-b]pyridazin-6-yl]-phenyl}-cyclobutylamine]
–	2470 nM	10000 nM	–	CCc1c(C)nc2cc(-c3ccccc3)c(-c3ccc(C4(N)CCC4)cc3)nn12 [Example 13-0, 1-[4-(3-Ethyl-2-methyl-7-phenyl-imidazo[1,2-b]pyridazin-6-yl)-phenyl]-cyclobutylamine]
36 nM	1910 nM	–	81 nM	NC1(c2ccc(-c3nn4c(-c5ccc(F)cc5)cnc4cc3-c3ccccc3)cc2)CCC1 [Example 4-3, 1-{4-[3-(4-Fluorophenyl)-7-phenyl-imidazo[1,2-b]pyridazin-6-yl]-phenyl}-cyclobutylamine]
246 nM	3540 nM	–	1440 nM	NC1(c2ccc(-c3nn4ccnc4cc3-c3ccccc3)cc2)CCC1 [Example 1-0, 1-[4-(7-Phenyl-imidazo[1,2-b]pyridazin-6-yl)-phenyl]-cyclobutylamine]
441 nM	–	–	1730 nM	Cc1cnc2cc(-c3ccccc3)c(-c3ccc(C4(N)CCC4)cc3)nn12 [Example 2-0, 1-[4-(3-Methyl-7-phenyl-imidazo[1,2-b]pyridazin-6-yl)-phenyl]-cyclobutylamine]
11 nM	5170 nM	–	22 nM	NC1(c2ccc(-c3nn4c(-c5ccc6cn[nH]c6c5)cnc4cc3-c3ccccc3)cc2)CCC1 [Example 4-16, 1-{4-[3-(1H-indazol-6-yl)-7-phenyl-imidazo[1,2-b]pyridazin-6-yl]-phenyl}-cyclobutylamine]
